What was measured:
WM-266-4 cells = experiment: Cell Proliferation Inhibitory Test; format: cell-based; conditions: Homo sapiens, 72 h, cultured three days with test compound, MTT, read-out: 50% cell proliferation inhibitory activity (GI50 value)
Summary of the method: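 Cells cultured overnight, then exposed to serially diluted compound for three days; cell amount read by MTT. GI50 solved from 100×[(T−T0)/(C−T0)]=50, with T0 the value at time of compound addition and C the untreated three-day control.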

human mTOR = target: T1, human mTOR (Homo sapiens, UniProt P42345); experiment: mTOR Kinase Activity Inhibition Test; format: biochemical; conditions: His-tagged mTOR (1362C), biotinylated peptide substrate, ATP, 3 hours at room temperature, fluorescence resonance energy transfer 665 nm/620 nm; read-out: IC50 value of mTOR enzyme inhibitory activity
T1 construct: the portion corresponding to 1362-2549aa at the C terminus of human mTOR; made in house
T1 sequence (P42345 1362-2549): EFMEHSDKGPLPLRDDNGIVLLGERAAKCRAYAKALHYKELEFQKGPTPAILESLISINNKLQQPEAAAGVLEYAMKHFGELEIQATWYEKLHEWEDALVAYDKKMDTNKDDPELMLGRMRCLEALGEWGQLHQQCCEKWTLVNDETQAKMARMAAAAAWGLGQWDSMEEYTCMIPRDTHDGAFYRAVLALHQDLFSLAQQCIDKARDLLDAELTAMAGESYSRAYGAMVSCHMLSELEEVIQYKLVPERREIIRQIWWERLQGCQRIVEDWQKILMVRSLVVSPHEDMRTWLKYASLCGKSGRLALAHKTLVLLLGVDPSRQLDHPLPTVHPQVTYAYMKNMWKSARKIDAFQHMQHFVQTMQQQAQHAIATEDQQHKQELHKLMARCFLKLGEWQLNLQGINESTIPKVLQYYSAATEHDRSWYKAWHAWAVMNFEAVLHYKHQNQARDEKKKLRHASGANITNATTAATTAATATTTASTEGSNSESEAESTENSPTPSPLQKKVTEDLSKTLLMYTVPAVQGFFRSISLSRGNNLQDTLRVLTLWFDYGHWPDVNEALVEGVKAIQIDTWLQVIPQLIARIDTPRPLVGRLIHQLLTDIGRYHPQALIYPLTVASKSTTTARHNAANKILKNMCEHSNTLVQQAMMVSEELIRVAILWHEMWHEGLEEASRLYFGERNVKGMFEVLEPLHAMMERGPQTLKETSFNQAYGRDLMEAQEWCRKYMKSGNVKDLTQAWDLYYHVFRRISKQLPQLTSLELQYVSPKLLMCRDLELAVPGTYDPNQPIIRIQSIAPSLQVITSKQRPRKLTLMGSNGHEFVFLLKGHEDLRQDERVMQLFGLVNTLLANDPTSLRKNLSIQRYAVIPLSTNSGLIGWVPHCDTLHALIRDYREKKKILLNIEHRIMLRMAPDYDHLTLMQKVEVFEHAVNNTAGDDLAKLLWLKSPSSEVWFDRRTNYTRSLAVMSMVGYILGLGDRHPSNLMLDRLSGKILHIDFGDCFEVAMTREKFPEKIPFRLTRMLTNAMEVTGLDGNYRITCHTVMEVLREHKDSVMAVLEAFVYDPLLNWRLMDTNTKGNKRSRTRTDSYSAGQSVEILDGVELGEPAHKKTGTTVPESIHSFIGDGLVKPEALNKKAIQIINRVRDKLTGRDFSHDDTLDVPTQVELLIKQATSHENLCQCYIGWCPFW
Summary of the method: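 Purified His-tagged human mTOR (1362–2549aa, from HEK293) was used with biotinylated peptide (8 μg/mL in enzyme solution) in HEPES pH 7.5 with 20 mM MnCl2. Compounds were diluted in 20 μM ATP solution, and the reaction ran 3 h at RT. Phospho-S6K(Thr389) HTRF was read as the 665/620 nm ratio, and IC50 came from % inhibition versus controls.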

SMILES	IC50 (human mTOR)	GI50 (WM-266-4 cells)
N#CC1(Cn2c(=O)[nH]c3ncc(-c4cnc5[nH]ccc5c4)cc32)CCOCC1 [Example 100, 4-{[2-Oxo-6-(1H-pyrrolo[2,3-b]pyridin-5-yl)-2,3-dihydro-1H-imidazo[4,5-b]pyridin-1-yl]methyl}tetrahydro-2H-pyran-4-carbonitrile]	< 50 nM	< 3000 nM
O=c1[nH]c2ncc(-c3cnc4[nH]ccc4c3)cc2n1C[C@H]1CC[C@H](O)CC1 [Example 101, 1-[(trans-4-Hydroxycyclohexyl)methyl]-6-(1H-pyrrolo[2,3-b]pyridin-5-yl)-1,3-dihydro-2H-imidazo[4,5-b]pyridin-2-one]	< 50 nM	< 3000 nM
O=c1[nH]c2ncc(-c3cnc4[nH]ccc4c3)cc2n1C[C@H]1CC[C@@H](O)CC1 [Example 102, 1-[(cis-4-Hydroxycyclohexyl)methyl]-6-(1H-pyrrolo[2,3-b]pyridin-5-yl)-1,3-dihydro-2H-imidazo[4,5-b]pyridin-2-one]	< 50 nM	< 3000 nM
O=c1[nH]c2ncc(-c3cnc4[nH]ccc4c3)cc2n1CC1CCC(F)(F)CC1 [Example 103, 1-[(4,4-Difluorocyclohexyl)methyl]-6-(1H-pyrrolo[2,3-b]pyridin-5-yl)-1,3-dihydro-2H-imidazo[4,5-b]pyridin-2-one]	< 50 nM	< 3000 nM
O=c1[nH]c2ncc(-c3cnc4[nH]ccc4c3)cc2n1CC1CCOC1 (centres unmarked) [Example 107, 6-(1H-Pyrrolo[2,3-b]pyridin-5-yl)-1-(tetrahydrofuran-3-ylmethyl)-1,3-dihydro-2H-imidazo[4,5-b]pyridin-2-one]	< 50 nM	< 3000 nM
O=c1[nH]c2ncc(-c3cnc4[nH]ccc4c3)cc2n1CC1COCCN1 (centres unmarked) [Example 108, 1-(Morpholin-3-ylmethyl)-6-(1H-pyrrolo[2,3-b]pyridin-5-yl)-1,3-dihydro-2H-imidazo[4,5-b]pyridin-2-one]	< 50 nM	< 3000 nM
CN1C(=O)COC[C@@H]1Cn1c(=O)[nH]c2ncc(-c3cnc4[nH]ccc4c3)cc21 [Example 109, 1-{[(3S)-4-Methyl-5-oxomorpholin-3-yl]methyl}-6-(1H-pyrrolo[2,3-b]pyridin-5-yl)-1,3-dihydro-2H-imidazo[4,5-b]pyridin-2-one]	< 50 nM	3000 to 25000 nM
O=c1[nH]c2ncc(-c3cnc4[nH]cc(Cl)c4c3)cc2n1C[C@H]1CC[C@@H](O)CC1 [Example 116, 6-(3-Chloro-1H-pyrrolo[2,3-b]pyridin-5-yl)-1-[(cis-4-hydroxycyclohexyl)methyl]-1,3-dihydro-2H-imidazo[4,5-b]pyridin-2-one]	< 50 nM	< 3000 nM
O=c1[nH]c2ncc(-c3cnc4[nH]ccc4c3Cl)cc2n1C[C@H]1COCCO1 [Example 117, 6-(4-Chloro-1H-pyrrolo[2,3-b]pyridin-5-yl)-1-[(2S)-1,4-dioxan-2-ylmethyl]-1,3-dihydro-2H-imidazo[4,5-b]pyridin-2-one]	< 50 nM	< 3000 nM
O=c1[nH]c2ncc(-c3cnc4[nH]cc(F)c4c3)cc2n1C[C@H]1COCCO1 [Example 118, 1-[(2S)-1,4-Dioxan-2-ylmethyl]-6-(3-fluoro-1H-pyrrolo[2,3-b]pyridin-5-yl)-1,3-dihydro-2H-imidazo[4,5-b]pyridin-2-one]	< 50 nM	< 3000 nM
Cc1nc2[nH]c(=O)n(C[C@H]3COCCO3)c2cc1-c1cnc2[nH]cc(F)c2c1 [Example 119, 1-[(2S)-1,4-Dioxan-2-ylmethyl]-6-(3-fluoro-1H-pyrrolo[2,3-b]pyridin-5-yl)-5-methyl-1,3-dihydro-2H-imidazo[4,5-b]pyridin-2-one]	< 50 nM	< 3000 nM
O=c1[nH]c2ncc(-c3cnc4c(c3)CCN4)cc2n1C[C@H]1COCCO1 [Example 121, 6-(2,3-Dihydro-1H-pyrrolo[2,3-b]pyridin-5-yl)-1-[(2S)-1,4-dioxan-2-ylmethyl]-1,3-dihydro-2H-imidazo[4,5-b]pyridin-2-one]	< 50 nM	< 3000 nM
O=c1[nH]c2ncc(-c3cnc4[nH]ccc4c3C(F)(F)F)cc2n1C[C@H]1COCCO1 [Example 122, 1-[(2S)-1,4-Dioxan-2-ylmethyl]-6-(4-(trifluoromethyl)-1H-pyrrolo[2,3-b]pyridin-5-yl)-1,3-dihydro-2H-imidazo[4,5-b]pyridin-2-one]	< 50 nM	< 3000 nM
Cc1c[nH]c2ncc(-c3cnc4[nH]c(=O)n(C[C@H]5COCCO5)c4c3)c(C)c12 [Example 124, 6-(3,4-Dimethyl-1H-pyrrolo[2,3-b]pyridin-5-yl)-1-[(2S)-1,4-dioxan-2-ylmethyl]-1,3-dihydro-2H-imidazo[4,5-b]pyridin-2-one]	< 50 nM	< 3000 nM
O=c1[nH]c2ncc(-c3cc4cc[nH]c4nc3Cl)cc2n1C[C@H]1COCCO1 [Example 127, 6-(6-Chloro-1H-pyrrolo[2,3-b]pyridin-5-yl)-1-[(2S)-1,4-dioxan-2-ylmethyl]-1,3-dihydro-2H-imidazo[4,5-b]pyridin-2-one]	< 50 nM	< 3000 nM
Cc1c(-c2cnc3[nH]c(=O)n(C[C@H]4COCCO4)c3c2)cc(F)c2[nH]ccc12 [Example 128, 1-[(2S)-1,4-Dioxan-2-ylmethyl]-6-(7-fluoro-4-methyl-1H-indol-5-yl)-1,3-dihydro-2H-imidazo[4,5-b]pyridin-2-one]	< 50 nM	< 3000 nM
Cc1nc2[nH]ccc2cc1-c1cnc2[nH]c(=O)n(C[C@H]3COCCO3)c2c1 [Example 129, 1-[(2S)-1,4-Dioxan-2-ylmethyl]-6-(6-methyl-1H-pyrrolo[2,3-b]pyridin-5-yl)-1,3-dihydro-2H-imidazo[4,5-b]pyridin-2-one]	< 50 nM	< 3000 nM
Nc1c(-c2cnc3[nH]c(=O)n(C[C@H]4COCCO4)c3c2)cnc2[nH]ccc12 [Example 130, 6-(4-Amino-1H-pyrrolo[2,3-b]pyridin-5-yl)-1-[(2S)-1,4-dioxan-2-ylmethyl]-1,3-dihydro-2H-imidazo[4,5-b]pyridin-2-one]	< 50 nM	3000 to 25000 nM
CN(C)c1c(-c2cnc3[nH]c(=O)n(C[C@H]4COCCO4)c3c2)cnc2[nH]ccc12 [Example 131, 6-[4-(Dimethylamino)-1H-pyrrolo[2,3-b]pyridin-5-yl]-1-[(2S)-1,4-dioxan-2-ylmethyl]-1,3-dihydro-2H-imidazo[4,5-b]pyridin-2-one]	100 to 5000 nM	3000 to 25000 nM

Continued, in another order:

IC50 (human mTOR)	SMILES	GI50 (WM-266-4 cells)
< 50 nM	O=c1[nH]c2ncc(-c3cnc4[nH]ccc4c3)cc2n1CC1CCS(=O)(=O)CC1 [Example 97, 1-[(1,1-Dioxidotetrahydro-2H-thiopyran-4-yl)methyl]-6-(1H-pyrrolo[2,3-b]pyridin-5-yl)-1,3-dihydro-2H-imidazo[4,5-b]pyridin-2-one]	3000 to 25000 nM
< 50 nM	CO[C@H]1CC[C@H](Cn2c(=O)[nH]c3ncc(-c4cnc5[nH]ccc5c4)cc32)CC1 [Example 98, 1-[(trans-4-Methoxycyclohexyl)methyl]-6-(1H-pyrrolo[2,3-b]pyridin-5-yl)-1,3-dihydro-2H-imidazo[4,5-b]pyridin-2-one]	< 3000 nM
< 50 nM	CO[C@H]1CC[C@@H](Cn2c(=O)[nH]c3ncc(-c4cnc5[nH]ccc5c4)cc32)CC1 [Example 99, 1-[(cis-4-Methoxycyclohexyl)methyl]-6-(1H-pyrrolo[2,3-b]pyridin-5-yl)-1,3-dihydro-2H-imidazo[4,5-b]pyridin-2-one]	< 3000 nM
< 50 nM	O=C1COC(Cn2c(=O)[nH]c3ncc(-c4cnc5[nH]ccc5c4)cc32)CN1 (centres unmarked) [Example 110, 1-[(5-Oxomorpholin-2-yl)methyl]-6-(1H-pyrrolo[2,3-b]pyridin-5-yl)-1,3-dihydro-2H-imidazo[4,5-b]pyridin-2-one]	3000 to 25000 nM
< 50 nM	CO[C@H]1CC[C@@H](Cn2c(=O)[nH]c3ncc(-c4cnc5[nH]cc(Cl)c5c4)cc32)CC1 [Example 115, 6-(3-Chloro-1H-pyrrolo[2,3-b]pyridin-5-yl)-1-[(cis-4-methoxycyclohexyl)methyl]-1,3-dihydro-2H-imidazo[4,5-b]pyridin-2-one]	< 3000 nM
< 50 nM	O=c1[nH]c2ncc(-c3cnc4[nH]ccc4c3F)cc2n1C[C@H]1COCCO1 [Example 120, 1-[(2S)-1,4-Dioxan-2-ylmethyl]-6-(4-fluoro-1H-pyrrolo[2,3-b]pyridin-5-yl)-1,3-dihydro-2H-imidazo[4,5-b]pyridin-2-one]	< 3000 nM
< 50 nM	CCc1c(-c2cnc3[nH]c(=O)n(C[C@H]4COCCO4)c3c2)cnc2[nH]ccc12 [Example 123, 1-[(2S)-1,4-Dioxan-2-ylmethyl]-6-(4-ethyl-1H-pyrrolo[2,3-b]pyridin-5-yl)-1,3-dihydro-2H-imidazo[4,5-b]pyridin-2-one]	< 3000 nM
< 50 nM	Cc1c(-c2cnc3[nH]c(=O)n(C[C@H]4COCCO4)c3c2)cnc2[nH]cc(Cl)c12 [Example 125, 6-(3-Chloro-4-methyl-1H-pyrrolo[2,3-b]pyridin-5-yl)-1-[(2S)-1,4-dioxan-2-ylmethyl]-1,3-dihydro-2H-imidazo[4,5-b]pyridin-2-one]	< 3000 nM
< 50 nM	Cc1c(-c2cnc3[nH]c(=O)n(C[C@H]4COCCO4)c3c2)cnc2[nH]cc(F)c12 [Example 126, 1-[(2S)-1,4-Dioxan-2-ylmethyl]-6-(3-fluoro-4-methyl-1H-pyrrolo[2,3-b]pyridin-5-yl)-1,3-dihydro-2H-imidazo[4,5-b]pyridin-2-one]	< 3000 nM

Source: US8436012B2, “Imidazopyridin-2-one derivatives” (Daiichi Sankyo Company, Limited, priority 2008, dated 2013)
